Results published in patent US20030212061A1, “Aza-thioxanthenones with antitumor activity” (priority 2002, published 2003).

Tested on: murine leukemia (L1210) and P388 leukemia cells
Experiment: not given
Conditions: in vitro L1210 and in vivo P388; cited from earlier work

Compound | assessment as a potential antitumor agent
CN(C)CCNC(=O)c1cccc2c(=O)c3ccccc3sc12.Cl [N-[2-(dimethylamino)ethyl-]-9-oxo-9H-thioxanthene-4-carboxamide monohydrochloride] | unlikely to worth pursuing

Tested on: HeLa S-3 cells
Experiment: Inhibition of cell growth (GI50), sulforhodamine B staining
Type: cell-based
Conditions: GI50 of carbocyclic congener versus GI50 of aza-analog, HeLa cells
Procedure: Growth inhibition (GI50) values were measured with HeLa S-3 cells selected for growth on plastic. The procedure was based on the protocol of Skehan et al. (Skehan, P., et al., J. Natl. Cancer Inst., 82:1107-1112 (1990), which is hereby incorporated by reference) HeLa cells were plated at 2×10^4 cells/well in 96 well plates. One day later, a control plate was fixed by addition of TCA to 5%. After five rinses with tap water, the plate was air dried and stored at 4° C. Test compounds were added to the remaining plates at 10-fold dilutions between 0.01 and 100 μM. Two days later, all plates were fixed as described above. Cells were then stained by the addition of 100 μl per well of 0.4% sulforhodamine B (SRB) in 1% acetic acid for 30 min at 4° C. Wells were then quickly rinsed 5×with acetic acid (1%) and allowed to air dry. The SRB was then solubilized by the addition of 100 μl per well of unbuffered 10 mM Tris base. Dye was quantified by measuring absorbance at 490 nm on a Molecular Devices kinetic microplate reader. Growth at each inhibitor concentration relative to the untreated control was calculated according to the following equation: percent growth=100×(T−To)/(C−To), where T was the average optical density (OD) of the test wells after 2 days of treatment, To was the average OD of the wells in the control plate on day 0 and C was the average OD of untreated wells. Plots of percent growth versus inhibitor concentration were used to determine the GI50.
The data below shown in Table 4 summarizes the in vitro growth inhibition constants (GI50) of HeLa Cells for the compounds of the current invention.
GI50 is the concentration of the compound that causes a 50 percent inhibition of tumor cell growth

Compound | Folds Improvements
CCN(CC)CCNc1cccc2sc3ccncc3c(=O)c12 [drawing 98] | 3.5
CCN(CC)CCNc1ccc(CNS(C)(=O)=O)c2sc3ccncc3c(=O)c12 [drawing 104] | 7.5
CCN(CC)CCNc1ccc(CNS(C)(=O)=O)c2sc3ccncc3c(=O)c12 [drawing 106] | 10
CCN(CC)CCNc1ccc(CNC=O)c2sc3ccncc3c(=O)c12 [drawing 100] | 3
CCN(CC)CCNc1ccc(CN)c2sc3ccncc3c(=O)c12 [drawing 102] | 1

Same assay, conditions: HeLa cells, Table 5, aza-analog; read-out: GI50 (Aza-Analog)

GI50 | Compound
0.3 µM | CCN(CC)CCNc1ccc(CNS(C)(=O)=O)c2sc3ccncc3c(=O)c12 [drawing 106]

Same assay, conditions: Homo sapiens, HeLa S3, 48 h, HeLa cells, 2 days of treatment, Table 4; read-out: GI50 Activity

GI50 | Compound
0.1 µM | CCN(CC)CCn1nc2c3c(c(CNC(=O)OC)ccc31)Sc1ccncc1-2
3 µM | CCN(CC)CCNc1ccc(CNC=O)c2sc3ccccc3c(=O)c12 [drawing 76]
3 µM | CCN(CC)CCNc1ccc(CNS(C)(=O)=O)c2sc3ccccc3c(=O)c12 [drawing 78]
2 µM | CCN(CC)CCn1nc2c3c(c(C=O)ccc31)Sc1ccccc1-2
1 µM | CCN(CC)CCn1nc2c3c(c(CNC=O)ccc31)Sc1ccccc1-2
> 10 µM | CCN(CC)CCN(N)c1ccc2c(=O)c3cnccc3sc2c1
2 µM | CCN(CC)CCNc1ccc(C=O)c2sc3ccccc3c(=O)c12
0.3 µM | CCN(CC)CCNc1ccc(CNC(=O)OC)c2sc3ccncc3c(=O)c12
0.4 µM | CCN(CC)CCNc1ccc(CNS(C)(=O)=O)c2sc3ccncc3c(=O)c12 [drawing 84]
3 µM | CCN(CC)CCNc1cccc2sc3ccncc3c(=O)c12 [drawing 81]
1 µM | CCN(CC)CCn1nc2c3c(cccc31)Sc1ccncc1-2
0.2 µM | CCN(CC)CCn1nc2c3c(c(CNC=O)ccc31)Sc1ccncc1-2
3 µM | CCN(CC)CCNc1ccc(CNC(=O)OC)c2sc3ccccc3c(=O)c12 [drawing 79]
3 µM | CCN(CC)CCn1nc2c3c(c(CNC(=O)OC)ccc31)Sc1ccccc1-2
> 10 µM | CCN(CC)CCNc1cccc2sc3ccccc3c(=O)c12 [drawing 74]
0.2 µM | CCN(CC)CCn1nc2c3c(c(CN)ccc31)Sc1ccncc1-2
1 µM | CCN(CC)CCNc1ccc(CNC=O)c2sc3ccncc3c(=O)c12 [drawing 82]
0.9 µM | CCN(CC)CCn1nc2c3c(c(CNS(C)(=O)=O)ccc31)Sc1ccccc1-2
> 10 µM | CCN(CC)CCN(C)c1ccc2c(=O)c3cnccc3sc2c1
0.7 µM | CCN(CC)CCNc1ccc(CN)c2sc3ccncc3c(=O)c12 [drawing 83]
9 µM | CCN(CC)CCn1nc2c3c(cccc31)Sc1ccccc1-2
0.6 µM | CCN(CC)CCNc1ccc(CN)c2sc3ccccc3c(=O)c12 [drawing 77]
1 µM | CCN(CC)CCn1nc2c3c(c(CN)ccc31)Sc1ccccc1-2

Same assay, conditions: Homo sapiens, HeLa S3, HeLa cells, Table 5, aza-analog; read-out: GI50 (Aza-Analog)

GI50 | Compound
3 µM | CCN(CC)CCNc1cccc2sc3ccncc3c(=O)c12 [drawing 98]
0.4 µM | CCN(CC)CCNc1ccc(CNS(C)(=O)=O)c2sc3ccncc3c(=O)c12 [drawing 104]
1 µM | CCN(CC)CCNc1ccc(CNC=O)c2sc3ccncc3c(=O)c12 [drawing 100]
0.7 µM | CCN(CC)CCNc1ccc(CN)c2sc3ccncc3c(=O)c12 [drawing 102]

Same assay, conditions: Homo sapiens, HeLa S3, HeLa cells, Table 5, carbocyclic congener; read-out: GI50 (Carbocic Congener)

GI50 | Compound
3 µM | CCN(CC)CCNc1ccc(CNC=O)c2sc3ccccc3c(=O)c12 [drawing 99, reference compound]
3 µM | CCN(CC)CCNc1ccc(CNS(C)(=O)=O)c2sc3ccccc3c(=O)c12 [drawing 103, reference compound]
3 µM | CCN(CC)CCNc1ccc(CNC(=O)OC)c2sc3ccccc3c(=O)c12 [drawing 105, reference compound]
0.6 µM | CCN(CC)CCNc1ccc(CN)c2sc3ccccc3c(=O)c12 [drawing 101, reference compound]
> 10 µM | CCN(CC)CCNc1cccc2sc3ccccc3c(=O)c12 [drawing 97, reference compound]
